Measured values from article PMC4112042, “Phase 1 dose-escalation study of the PARP inhibitor CEP-9722 as monotherapy or in combination with temozolomide in patients with solid tumors” (Cancer Chemotherapy and Pharmacology, 2014).

Columns and labels:
[1] = Plasma pharmacokinetics of CEP-8983 after oral CEP-9722; assay type: in vivo, human; settings: patients
Experimental: Pharmacokinetic serum samples were collected on day 1 of cycle 1 pre-dose and 0.5, 1, 2, 3, 4, 6, 8, 10, and 24 h post-dose; and on day 5 of cycle 1 and cycle 2 pre-dose, and 0.5, 1, 2, 3, 4, 6, 8, 10, 24, and 48 h post-dose. Urine samples were obtained on day 1 of cycle 1 during 4 intervals in the 24 h following study drug administration. Pharmacokinetic parameters (area under the plasma drug concentration–time curve from time 0 to infinity [AUC0–∞], AUC from time 0 to the time of the last measurable drug concentration [AUC0–t], AUC for 1 dosing interval [AUCτ] following multiple doses, maximum observed plasma concentration [C max], and time to maximum observed plasma concentration [T max]) were summarized at each visit (day 1 of cycle 1 and day 5 of cycles 1 and 2) using descriptive statistics.

[2] = test system: patients with advanced solid tumors; assay: Phase 1 dose-escalation: safety, DLT and MTD
Experimental: The study consisted of a screening period to determine patient eligibility, a 14-day cycle in which CEP-9722 was administered once daily as monotherapy, and subsequent 28-day cycles in which CEP-9722 and temozolomide were administered as combination therapy. In cycle 1, the first patient in each dosing cohort received CEP-9722 on days 1, 3, 4, and 5, while other patients in each cohort received CEP-9722 on days 1–5. In cycle 2, patients received CEP-9722 and temozolomide on days 1–5 (Supplemental Fig.). CEP-9722 was escalated from a starting dose of 150 mg/day up to 1,000 mg/day, and temozolomide was given at the dose of 150 mg/m^2/day at all dose levels of CEP-9722. Both CEP-9722 and temozolomide were administered in the fasted state.
Patients were enrolled in cohorts of 3. Enrollment in the next cohort commenced when the third patient in the current cohort had completed day 28 of cycle 2 without a dose-limiting toxicity (DLT).
Safety was assessed using adverse event data, clinical laboratory test results, vital signs measurement, ECG findings, physical examination findings, ECOG performance status, and concomitant medication usage.

[3] = test system: advanced solid tumors; assay: Best tumor response according to RECIST 1.0; assay type: in vivo, human
Experimental: Tumor assessment was performed within 4 weeks before the first dose of study drug and within the fourth week of cycle 2 using computed tomography or magnetic resonance imaging with contrast. In patients who continued treatment, tumor assessment was performed every 2 cycles and at the end of treatment visit, at the discretion of the investigator.

[4] = test system: PARP in peripheral blood mononuclear cells (PBMCs); assay: PAR ELISA in PBMCs (PARP inhibition, pharmacodynamics); assay type: in vivo, human
Experimental: Pharmacodynamics were assessed by the measurement of PAR concentrations in PBMCs. PBMCs were isolated at site, and the frozen cell pellet was sent to a central laboratory (Trevigen Inc., Gaithersburg, MD, USA) for processing and analysis by PAR enzyme-linked immunosorbent assay (ELISA). Pharmacodynamic samples were collected on 2 consecutive days at screening visits and on days 1, 5 (pre-dose and 2 h [cycle 1 only], 6 h, and 24 h post-dose), and 8 (at the time of hematology laboratory testing). The PAR concentrations in the 2 screening samples and the day 1 pre-dose sample were averaged to provide a baseline value, and the percentage inhibition from baseline was calculated in the post-dose samples.

[5] = test system: breast and ovarian cancer patients with BRCA mutations; design: method as in PMID 20609467, PMID 20609468; settings: monotherapy; cited from earlier work
[6] = test system: patients with metastatic melanoma; settings: phase 2, metastatic melanoma, combination with temozolomide; cited from earlier work
[7] = cycle 1, single-agent CEP-9722, total, all dose levels (N=26)
[8] = cycles ≥2, CEP-9722 combined with temozolomide, 150 mg/day (N=3)
[9] = cycles ≥2, CEP-9722 combined with temozolomide, 300 mg/day (N=6)
[10] = cycles ≥2, CEP-9722 combined with temozolomide, 500 mg/day (N=3)
[11] = cycles ≥2, CEP-9722 combined with temozolomide, 750 mg/day (N=11)
[12] = cycles ≥2, CEP-9722 combined with temozolomide, 1,000 mg/day (N=3)
[13] = cohort 1, 150 mg/day, 2 evaluated
[14] = cohort 2, 300 mg/day, 6 evaluated
[15] = cohort 3, 500 mg/day, 3 evaluated
[16] = cohort 4, 750 mg/day, 9 evaluated
[17] = cohort 5, 1,000 mg/day, 2 evaluated

COc1cccc2[nH]c3c4c(c5c(c3c12)C(=O)N(CN1CCN(C)CC1)C5=O)CCC4 [CEP-9722]
conversion of CEP-9722 into its active form [1]: rapid | Anorexia (treatment-related adverse event, all grades) [2, 7]: 3 (12) N patients (%) | Asthenia (treatment-related adverse event, all grades) [2, 7]: 5 (19) N patients (%) | Blood creatinine phosphokinase increased (treatment-related adverse event, all grades) [2, 7]: 2 (8) N patients (%) | Constipation (treatment-related adverse event, all grades) [2, 7]: 2 (8) N patients (%) | Diarrhea (treatment-related adverse event, all grades) [2, 7]: 7 (27) N patients (%) | Fatigue (treatment-related adverse event, all grades) [2, 7]: 4 (15) N patients (%) | Headache (treatment-related adverse event, all grades) [2, 7]: 10 (38) N patients (%) | Nausea (treatment-related adverse event, all grades) [2, 7]: 12 (46) N patients (%) | Vomiting (treatment-related adverse event, all grades) [2, 7]: 7 (27) N patients (%) | Anemia (treatment-related adverse event, all grades) [2, 8]: 0 N patients (%) | Anorexia (treatment-related adverse event, all grades) [2, 8]: 0 N patients (%) | Aspartate aminotransferase increased (treatment-related adverse event, all grades) [2, 8]: 0 N patients (%) | Asthenia (treatment-related adverse event, all grades) [2, 8]: 0 N patients (%) | Constipation (treatment-related adverse event, all grades) [2, 8]: 0 N patients (%) | Diarrhea (treatment-related adverse event, all grades) [2, 8]: 0 N patients (%) | Dyspepsia (treatment-related adverse event, all grades) [2, 8]: 0 N patients (%) | Fatigue (treatment-related adverse event, all grades) [2, 8]: 0 N patients (%) | Gamma-glutamyltransferase increased (treatment-related adverse event, all grades) [2, 8]: 0 N patients (%) | Anemia (treatment-related adverse event, all grades) [2, 9]: 0 N patients (%) | Anorexia (treatment-related adverse event, all grades) [2, 9]: 1 (17) N patients (%) | Aspartate aminotransferase increased (treatment-related adverse event, all grades) [2, 9]: 0 N patients (%) | Asthenia (treatment-related adverse event, all grades) [2, 9]: 0 N patients (%) | Constipation (treatment-related adverse event, all grades) [2, 9]: 0 N patients (%) | Diarrhea (treatment-related adverse event, all grades) [2, 9]: 0 N patients (%) | Dyspepsia (treatment-related adverse event, all grades) [2, 9]: 0 N patients (%) | Gamma-glutamyltransferase increased (treatment-related adverse event, all grades) [2, 9]: 0 N patients (%) | Anemia (treatment-related adverse event, all grades) [2, 10]: 1 (33) N patients (%) | Anorexia (treatment-related adverse event, all grades) [2, 10]: 0 N patients (%) | Aspartate aminotransferase increased (treatment-related adverse event, all grades) [2, 10]: 1 (33) N patients (%) | Asthenia (treatment-related adverse event, all grades) [2, 10]: 2 (67) N patients (%) | Constipation (treatment-related adverse event, all grades) [2, 10]: 0 N patients (%) | Diarrhea (treatment-related adverse event, all grades) [2, 10]: 0 N patients (%) | Dyspepsia (treatment-related adverse event, all grades) [2, 10]: 0 N patients (%) | Fatigue (treatment-related adverse event, all grades) [2, 10]: 0 N patients (%) | Gamma-glutamyltransferase increased (treatment-related adverse event, all grades) [2, 10]: 1 (33) N patients (%) | Anemia (treatment-related adverse event, all grades) [2, 11]: 1 (9) N patients (%) | Anorexia (treatment-related adverse event, all grades) [2, 11]: 1 (9) N patients (%) | Aspartate aminotransferase increased (treatment-related adverse event, all grades) [2, 11]: 1 (9) N patients (%) | Asthenia (treatment-related adverse event, all grades) [2, 11]: 4 (36) N patients (%) | Diarrhea (treatment-related adverse event, all grades) [2, 11]: 3 (27) N patients (%) | Dyspepsia (treatment-related adverse event, all grades) [2, 11]: 2 (18) N patients (%) | Fatigue (treatment-related adverse event, all grades) [2, 11]: 4 (36) N patients (%) | Gamma-glutamyltransferase increased (treatment-related adverse event, all grades) [2, 11]: 2 (18) N patients (%) | Anemia (treatment-related adverse event, all grades) [2, 12]: 0 N patients (%) | Aspartate aminotransferase increased (treatment-related adverse event, all grades) [2, 12]: 0 N patients (%) | Asthenia (treatment-related adverse event, all grades) [2, 12]: 0 N patients (%) | Constipation (treatment-related adverse event, all grades) [2, 12]: 1 (33) N patients (%) | Dyspepsia (treatment-related adverse event, all grades) [2, 12]: 0 N patients (%) | Fatigue (treatment-related adverse event, all grades) [2, 12]: 1 N patients (%) | Gamma-glutamyltransferase increased (treatment-related adverse event, all grades) [2, 12]: 0 N patients (%) | abdominal pain, adverse event ([2]; human, in vivo): 35% | anemia, adverse event ([2]; human, in vivo): 23% | anorexia, adverse event ([2]; human, in vivo): 35% | asthenia, adverse event ([2]; human, in vivo): 42% | constipation, adverse event ([2]; human, in vivo): 50% | diarrhea, adverse event ([2]; human, in vivo): 42% | fatigue, adverse event ([2]; human, in vivo): 31% | grade 3–4 lymphopenia (laboratory) ([2]; human, in vivo): 5 patients | headache, adverse event ([2]; human, in vivo): 50% | nausea, adverse event ([2]; human, in vivo): 77% | patients with treatment-related adverse events (TRAEs) ([2]; human, in vivo): 24 (92 %) patients (%) | recommended phase 2 dose ([2]; human, in vivo): 750 mg/day | vomiting, adverse event ([2]; human, in vivo): 65% | Abdominal pain (treatment-related adverse event, all grades) ([2]; human, in vivo, 14 day): 2 (8) N patients (%) | central review of ECGs ([2]; in vivo): no clinically significant abnormalities | patients who withdrew due to adverse events ([2]; in vivo): Four patients | patients with dose delays due to hematological toxicity ([2]; in vivo): three patients | patients with grade 3–4 laboratory hematologic toxicities ([2]; in vivo): Six patients | maximum tolerated dose (MTD) ([2]; with temozolomide 150 mg/m^2): 750 mg/day | Partial response [3, 13]: 0 patients | Progressive disease [3, 13]: 2 patients | Stable disease [3, 13]: 0 patients | Partial response [3, 14]: 0 patients | Progressive disease [3, 14]: 5 patients | Stable disease [3, 14]: 1 patients | Partial response [3, 15]: 0 patients | Progressive disease [3, 15]: 1 patients | Stable disease [3, 15]: 2 patients | Partial response [3, 16]: 0 patients | Progressive disease [3, 16]: 8 patients | Stable disease [3, 16]: 1 patients | Partial response [3, 17]: 1 patients | Progressive disease [3, 17]: 1 patients | Stable disease [3, 17]: 0 patients | reduction in target lesions (RECIST) in the patient with partial response ([3]; melanoma patient, 1,000 mg/day with temozolomide): 58% | duration of partial response ([3]; melanoma patient, 1,000 mg/day with temozolomide, first observed after 6 cycles): 5.8 months | Progressive disease ([3]; total, all cohorts, 22 evaluated): 17 patients | PAR concentrations in PBMCs relative to baseline ([4]; 2 and 6 h post-dose, cycle 1, without temozolomide): reduction in PAR concentrations relative to baseline was observed | reduction in PAR concentrations in PBMCs ([4]; 6 h post-dose, cycle 2, with temozolomide): less marked | inhibitory effects on PAR production ([4]; 24 h post-dose sample): lost

O=C(c1cc(Cc2n[nH]c(=O)c3ccccc23)ccc1F)N1CCN(C(=O)C2CC2)CC1 [olaparib]
RECIST responses [5]: 30–40%

CNCc1ccc(-c2[nH]c3cc(F)cc4c3c2CCNC4=O)cc1 [rucaparib]
patients requiring a reduction in the dose of temozolomide due to enhanced myelosuppression [6]: approximately half
